Counter-ions that a name gives are not always drawn. Like-named read-outs stand apart in the source and are kept apart here.
Tests used:
Assay in all cases: Cell growth inhibition, Sulforhodamine B assay (SRB)
Type in all cases: cell-based
[1] = tested on: A549 lung cancer cell line; settings: Homo sapiens, read-out: Cell Line GI50 Range A-549
Experimental: (§1) The cells were cultured for 5 days before the Sulforhodamine B assay (SRB) was performed to determine the compound's cell growth inhibition activity.
(§2) Sulforhodamine B (purchased from Sigma, Oakville, ON, Canada) is a water-soluble dye that binds to the basic amino acids of the cellular proteins. Thus, colorimetric measurement of the bound dye provides an estimate of the total protein mass that is related to the cell number. the cells are fixed in situ by gently aspirating off the culture media and adding 50 μl ice cold 10% Trichloroacetic Acid (TCA) per well and incubate at 4° C. for 30-60 min, The plates are washed with water five times and allowed to air dry for 5 min. […] Following staining, plates are washed four times with 1% acetic acid to remove unbound dye and then allowed to air dry for 5 min. […] Absorbance is read at 570 nm.
(§3) The percentage (%) of relative growth inhibition was calculated by comparing to DMSO treated only cells (100%). GI50's were determined for compounds with cytotoxic activity. The GI50 was calculated using GraphPad PRISM software (GraphPad Software, Inc., San Diego, Calif., USA).

[2] = tested on: HCC1954 basal breast cancer cell line; settings: Homo sapiens
Experimental: as §1, §2, §3

[3] = tested on: MCF-7 luminal breast cancer cell line; settings: Homo sapiens, MCF7, 120 h
Experimental: as §1, §2, §3

[4] = tested on: MDA-MB-468 basal breast cancer cell line; settings: Homo sapiens, 5 days culture, SRB
Experimental: as §1, §2, §3

[5] = tested on: SW620 colon cancer cell line; settings: Homo sapiens, SW-620, 120 h
Experimental: as §1, §2, §3

[6] = 120 h, A549 lung cancer cell line, 5 days culture, SRB
[7] = HCC1954, 120 h, HCC1954 basal breast cancer cell line, 5 days culture, SRB, read-out: Cell Line GI50 Range HCC-1954
[8] = MCF-7 luminal breast cancer cell line, 5 days culture, SRB, read-out: Cell Line GI50 Range MCF-7
[9] = 120 h, MDA-MB-468 basal breast cancer cell line, read-out: Cell Line GI50 Range MDA-MB-468
[10] = SW620 colon cancer cell line, 5 days culture, SRB, read-out: Cell Line GI50 Range SW-620
[11] = 120 h, HCC1954 basal breast cancer cell line, 5 days culture, SRB, read-out: Cell Line GI50 Range HCC-1954
[12] = HCC1954, 120 h, read-out: Cell Line GI50 Range HCC-1954
[13] = read-out: Cell Line GI50 Range MCF-7, MCF-7 luminal breast cancer cell line, 5 days culture, SRB
[14] = read-out: Cell Line GI50 Range SW-620, SW620 colon cancer cell line, 5 days culture, SRB

| GI50 [1, 6] | GI50 [3, 8] | GI50 [4, 9] | GI50 [5, 10] | GI50 [2, 11] | SMILES | other results |
| --- | --- | --- | --- | --- | --- | --- |
| 1000 to 10000 nM | 1000 to 10000 nM | 100 to 1000 nM | 1000 to 10000 nM | – | O=C1Nc2ncc(Br)cc2[C@@]12C[C@@H]2c1ccc2c(/C=C/c3cccnc3)n[nH]c2c1 (racemic) [Example A27, (1R*,2S*)-5′-bromo-2-(3-((E)-2-(pyridin-3-yl)vinyl)-1H-indazol-6-yl)spiro[cyclopropane-1,3′-pyrrolo[2,3-b]pyridin]-2′(1′H)-one] | GI50 [2, 7]: 1000 to 10000 nM |
| 1000 to 10000 nM | 1000 to 10000 nM | – | – | – | O=C1Nc2ccccc2[C@@]12C[C@@H]2c1ccc2c(/C=C/c3cccnc3)n[nH]c2c1 (racemic) [Example A28, (1R*,2S*)-2-(3-((E)-2-(pyridin-3-yl)vinyl)-1H-indazol-6-yl)spiro-[cyclopropane-1,3′-indolin]-2′-one] | GI50 [2, 7]: 1000 to 10000 nM |
| < 100 nM | > 10000 nM | 100 to 1000 nM | < 100 nM | > 10000 nM | COc1ccc2c(c1)[C@@]1(C[C@@H]1c1ccc3c(-c4ccnc(N5CCN(C)CC5)c4)n[nH]c3c1)C(=O)N2 (racemic) [Example A37, (1R*,2S*)-5′-Methoxy-2-(3-(2-(4-methylpiperazin-1-yl)pyridin-4-yl)-1H-indazol-6-yl)spiro[cyclopropane-1,3′-indolin]-2′-one] | – |
| 1000 to 10000 nM | 1000 to 10000 nM | 1000 to 10000 nM | 1000 to 10000 nM | > 10000 nM | COc1ccc2c(c1)[C@@]1(C[C@@H]1c1ccc3c(-c4cccc(CO)c4)n[nH]c3c1)C(=O)N2 (racemic) [Example A43, (1R*,2S*)-2-(3-(3-(hydroxymethyl)phenyl)-1H-indazol-6-yl)-5′-methoxy spiro[cyclopropane-1,3′-indolin]-2′-one 2,2,2-trifluoroacetate] | – |
| 1000 to 10000 nM | 1000 to 10000 nM | 1000 to 10000 nM | 1000 to 10000 nM | – | COc1ccc2c(c1)[C@@]1(C[C@@H]1c1ccc3c(-c4cccc(N5CCNCC5)c4)n[nH]c3c1)C(=O)N2 (racemic) [Example A47, (1R*,2S*)-5′-methoxy-2-(3-(3-(piperazin-1-yl)phenyl)-1H-indazol-6-yl)spiro[cyclopropane-1,3′-indolin]-2′-one 2,2,2-trifluoroacetate] | GI50 [2, 7]: 1000 to 10000 nM |
| < 100 nM | < 100 nM | < 100 nM | 100 to 1000 nM | – | CN1C(=O)[C@@]2(C[C@H]2c2ccc3c(/C=C/c4ccc(CN5CCOCC5)cc4)n[nH]c3c2)c2ccccc21 (racemic) [Example A87, (1R*,2S*)-(E)-1′-methyl-2-(3-(4-(morpholinomethyl)styryl)-1H-indazol-6-yl)spiro[cyclopropane-1,3′-indolin]-2′-one 2,2,2-trifluoroacetate] | GI50 [2, 7]: 1000 to 10000 nM |
| > 10000 nM | 1000 to 10000 nM | 1000 to 10000 nM | > 10000 nM | > 10000 nM | NS(=O)(=O)c1cccc(-c2n[nH]c3cc([C@@H]4C[C@@]45C(=O)Nc4ccccc45)ccc23)c1 (racemic) [Example A130, 3-(6-((1R*,2S*)-2′-oxospiro[cyclopropane-1,3′-indoline]-2-yl)-1H-indazol-3-yl)benzenesulfonamide] | – |
| – | < 100 nM | – | 100 to 1000 nM | > 10000 nM | COc1ccc2c(c1)[C@]1(C[C@H]1c1ccc3c(/C=C/c4cccc(CN5CCOCC5)c4)n[nH]c3c1)C(=O)N2 (racemic) [Example A133, (1R*,2S*)-5′-methoxy-2-(3-(3-(morpholinomethyl)styryl)-1H-indazol-6-yl)spiro[cyclopropane-1,3′-indolin]-2′-one 2,2,2-trifluoroacetate] | – |
| – | – | – | 100 to 1000 nM | – | COc1ccc2c(c1)[C@]1(C[C@H]1c1ccc3c(/C=C/c4cccc(CN(C)C)c4)n[nH]c3c1)C(=O)N2 (racemic) [Example A135, (1R*,2S*)-2-(3-(3-((dimethylamino)methyl)styryl)-1H-indazol-6-yl)-5′-methoxyspiro[cyclopropane-1,3′-indolin]-2′-one 2,2,2-trifluoroacetate] | GI50 [2, 7]: > 10000 nM |

The next lines start with the compound.

| SMILES | GI50 [1, 6] | GI50 [3, 8] | GI50 [4, 9] | GI50 [5, 10] | GI50 [2, 11] | other results |
| --- | --- | --- | --- | --- | --- | --- |
| COc1ccc2c(c1)[C@@]1(C[C@@H]1c1ccc3c(-c4ccc(N5CCN(C)CC5)cc4)n[nH]c3c1)C(=O)N2 (racemic) [Example A38, (1R*,2S*)-5′-Methoxy-2-(3-(4-(4-methylpiperazin-1-yl)phenyl)-1H-indazol-6-yl)spiro[cyclopropane-1,3′-indolin]-2′-one] | – | – | – | – | – | GI50 ([1]; A549, 120 h): < 100 nM; GI50 ([2]; HCC1954, 120 h, read-out: Cell Line GI50 Range HCC-1954, HCC1954 basal breast cancer cell line, 5 days culture, SRB): > 10000 nM; GI50 ([3]; read-out: Cell Line GI50 Range MCF-7): 100 to 1000 nM; GI50 ([4]; MDA-MB-468, 120 h, read-out: Cell Line GI50 Range MDA-MB-468, MDA-MB-468 basal breast cancer cell line): < 100 nM; GI50 ([5]; read-out: Cell Line GI50 Range SW-620): 100 to 1000 nM |
| COc1ccc2c(c1)[C@@]1(C[C@@H]1c1ccc3c(-c4ccc(CO)cc4)n[nH]c3c1)C(=O)N2 (racemic) [Example A45, (1R*,2S*)-2-(3-(4-(hydroxymethyl)phenyl)-1H-indazol-6-yl)-5′-methoxyspiro[cyclopropane-1,3′-indolin]-2′-one 2,2,2-trifluoroacetate] | 100 to 1000 nM | 1000 to 10000 nM | 100 to 1000 nM | 1000 to 10000 nM | > 10000 nM | – |
| COc1ccc2c(c1)[C@]1(C[C@H]1c1ccc3c(/C=C/c4ccc(CN5CCCCC5)nc4)n[nH]c3c1)C(=O)N2 (racemic) [Example A62, (1R,2S)-(E)-5′-methoxy-2-(3-((E)-2-(6-(piperidin-ylmethyl)pyridin-3-yl)vinyl)-1H-indazol-6-yl)spiro[cyclopropane-1,3′-indolin]-2′-one 2,2,2-trifluoroacetate salt] | – | – | – | – | – | GI50 [2, 12]: 1000 to 10000 nM |
| COc1ccc2c(c1)[C@@]1(C[C@@H]1c1ccc3c(-c4ccc(N5CCN(C)CC5)cc4)n[nH]c3c1)C(=O)N2C (racemic) [Example A100, (1R*,2S*)-5′-methoxy-1′-methyl-2-(3-(4-(4-methylpiperazin-1-yl)phenyl)-1H-indazol-6-yl)spiro[cyclopropane-1,3′-indolin]-2′-one 2,2,2-trifluoroacetate] | < 100 nM | 100 to 1000 nM | 100 to 1000 nM | < 100 nM | 1000 to 10000 nM | – |
| Cc1ccc2c(c1)[C@@]1(C[C@@H]1c1ccc3c(-c4ccc(N5CCN(C)CC5)cc4)n[nH]c3c1)C(=O)N2 (racemic) [Example A173, (1R*,2S*)-5′-methyl-2-(3-(4-(4-methylpiperazin-1-yl)phenyl)-1H-indazol-6-yl)spiro[cyclopropane-1,3′-indolin]-2′-one 2,2,2-trifluoroacetate] | 100 to 1000 nM | 100 to 1000 nM | 100 to 1000 nM | 100 to 1000 nM | 100 to 1000 nM | – |
| O=C1Nc2ccc(F)cc2[C@@]12C[C@@H]2c1ccc2c(/C=C/c3ccc(CN4CCOCC4)cc3)n[nH]c2c1 (racemic) [Example A219, (1R*,2S*)-(E)-5′-fluoro-2-(3-(4-(morpholinomethyl)styryl-1H-indazol-6-yl)spiro[cyclopropane-1,3′-indolin]-2′-one 2,2,2-trifluoroacetate] | – | – | – | – | – | GI50 [2, 12]: 100 to 1000 nM; GI50 [3, 13]: 100 to 1000 nM |
| COc1ccc2c(c1)[C@]1(CC1c1ccc3c(/C=C/c4ccc(CN5C[C@@H](C)O[C@@H](C)C5)cc4)n[nH]c3c1)C(=O)N2 (relative stereo) [Example A186, (1R*,2S*)-(E)-2-(3-(4-trans-2,6-dimethylmorpholino)methyl)styryl)-1H-indazol-6-yl)-5′-methoxspiro[cyclopropane-1,3′-indolin]-2′-one 2,2,2-trifluoroacetate] | – | – | – | – | 1000 to 10000 nM | – |
| CCN(CC)Cc1ccc(/C=C/c2n[nH]c3cc([C@@H]4C[C@@]45C(=O)Nc4ccccc45)ccc23)cc1 (relative stereo) [Example A211, (1R*,2S*)-(E)-2-(3-(4-((diethylamino)methyl)styryl)-1H-indazol-6-yl)spiro-[cyclopropane-1,3′-indolin]-2′-one 2,2,2-trifluoroacetate] | – | – | – | – | – | GI50 [3, 13]: 100 to 1000 nM; GI50 [5, 14]: 100 to 1000 nM |
| CN(C)Cc1ccc(/C=C/c2n[nH]c3cc([C@@H]4C[C@@]45C(=O)Nc4ccccc45)ccc23)cc1 [Example A24, (1R,2S)-(E)-2-(3-(4-((dimethylamino)methyl)styryl)-1H-indazol-6-yl)spiro[cyclopropane-1,3′-indolin]-2′-one 2,2,2-trifluoroacetate] | – | – | – | – | – | GI50 [5, 14]: < 100 nM |

Reference: patent US8481525B2, “Kinase inhibitors and method of treating cancer with same” (University of Health Network, priority 2009, dated 2013)
